Experimental findings from patent publication US6573274B1, “Sulfonamide compounds and uses thereof as medicines” (Fujisawa Pharmaceutical Co. Ltd., priority 1998, dated 2003) are described below.

The test system of one data set is db/db mice. Conditions: female db/db mice; Dose 1 mg/kg, drug mixed with diet; difference between db/db control group and +/+ mice taken as 100%.
Data set [1] can be described thus: Oral absorption (Cmax) in rats. In kind it is in vivo. Conditions: sodium salt compared to the free compound.
A short description of data set [2]: Oral absorption (Cmax) in dogs. In kind it is in vivo. Conditions: sodium salt compared to the free compound.

Bounds are passed on as bounds.

Method for db/db mice: Blood Sugar Level Depressing Activity in db/db Mice
Female C57BL/KsJ-dbm db+/db+, C57BL/KsJ-dbm +m/+m (Jackson Laboratory) mice (5 weeks old) were purchased and subjected to the test after 2-3 weeks of acclimating period.
The test drug was mixed with a powder diet (CE-2, Clea Japan, Inc.) in a mortar. In the case of administration in 100 mg/kg, the mixing proportion was 0.1%, in the case of 30 mg/kg, the proportion was 0.03% and in the case of 10 mg/kg, the proportion was 0.01%. The diet was changed twice a week for each group. The amount of the diet given and the amount left were recorded and the diet intake was calculated by determining the difference.
The female db/db mice were grouped according to body weight, blood sugar level and triglyceride concentration in plasma. […] The blood sugar level, triglyceride concentration in plasma and insulin concentration in plasma were measured at day 0 and day 14, and blood sugar level and triglyceride concentration in blood were measured at day 7.
Blood sugar level was measured using 10-15 μl of plasma and in accordance with glucose oxidase method (glucose CII-Test Wako, Wako Pure Chemicals Co., Ltd.). The triglyceride concentration in plasma was measured using 10-15 μl of plasma and in accordance with GPO-p-chlorophenol method (triglyceride G-Test Wako) or GPO-DAOS method (triglyceride E-Test Wako). […]

On to `CCCOc1ccc(Cn2c(C)nc3c(C)cc(C(=O)NS(=O)(=O)c4ccc(C)cc4)nc32)c(Cl)c1` [Compound A, 3-(2-Chloro-4-(1-propoxy)benzyl)-2,7-dimethyl-5-[(4-methylbenzene)sulfonylcarbamoyl]-3H-imidazo[4,5-b]pyridine], for which the “Blood sugar decrease (%)” value in the data set on db/db mice stood at 97%.
For the compound `CCCCCS(=O)(=O)NC(=O)c1ccc2nc(C)n(Cc3ccc(OCC4CCCCC4)cc3Cl)c2n1.[Na]` [Example 85, 3-[2-chloro-4-(cyclohexylmethyloxy)benzyl]-2-methyl-5-(1-pentanesulfonylcarbamoyl)-3H-imidazo[4,5-b]pyridine sodium salt], the melting point (as a rule, the temperature, or range, at which the solid turns liquid) was over 250 °C. In addition, the “Cmax, times greater than the free (non-salt) compound” value in data set [1] (rats, oral) lay in the range of 2 to 3 times. Also, in data set [1] (demonstrated by Cmax in rats and dogs), the “oral absorption as compared to the free (non-salt) compound” value is given as “markedly improved”. The “Cmax, times greater than the free (non-salt) compound” value in data set [2] was “about 16 times”.
In turn, `CCCCCS(=O)(=O)NC(=O)c1ccc2nc(C)n(Cc3ncc(NC(=O)OC(C)(C)C)cc3Cl)c2n1` [Example 129, 3-[(5-(N-(tert-butoxycarbonyl)amino)-3-chloropyridin-2-yl)methyl]-2-methyl-5-(1-pentanesulfonylcarbamoyl)-3H-imidazo[4,5-b]pyridine] returned a melting point of 193 to 194 °C.
On to `CCCCCS(=O)(=O)NC(=O)c1ccc2nc(C)n(Cc3ncc(NC(=O)OCC)cc3Cl)c2n1` [Example 132, 3-[(3-chloro-5-(N-(ethoxycarbonyl)amino)pyridin-2-yl)methyl]-2-methyl-5-(1-pentanesulfonylcarbamoyl)-3H-imidazo[4,5-b]pyridine], for which the melting point was 232 to 233 °C.
Consider `CCCCCS(=O)(=O)NC(=O)c1ccc2nc(C)n(Cc3ncc(NC(=O)OC(C)C)cc3Cl)c2n1` [Example 135, 3-[(5-(N-(isopropoxycarbonyl)amino)-3-chloropyridin-2-yl)methyl]-2-methyl-5-(1-pentanesulfonylcarbamoyl)-3H-imidazo[4,5-b]pyridine], for which the melting point was in the range of 228 to 230 °C.
In turn, `CCC/C=C/S(=O)(=O)NC(=O)c1ccc2nc(C)n(Cc3ncc(NC(=O)OC(C)C)cc3Cl)c2n1` [Example 136, 3-[(5-(N-(isopropoxycarbonyl)amino)-3-chloropyridin-2-yl)methyl]-2-methyl-5-((E)-1-penten-1-ylsulfonylcarbamoyl)-3H-imidazo[4,5-b]pyridine] returned a melting point of 242 to 244 °C.
Regarding `CCCCCS(=O)(=O)NC(=O)c1ccc2nc(C)n(Cc3ccc(N(C)C(=O)OCC)cc3Cl)c2n1` [Example 145, 3-(4-(N-(ethoxycarbonyl)-N-methylamino)-2-chlorobenzyl)-2-methyl-5-(1-pentanesulfonylcarbamoyl)-3H-imidazo[4,5-b]pyridine], the melting point fell in the range of 149 to 150 °C.
The compound `CCCCCS(=O)(=O)NC(=O)c1ccc2nc(C)n(Cc3ccc(N(C)C(=O)OCc4ccccc4)cc3Cl)c2n1` [Example 146, 3-(4-(N-(benzyloxycarbonyl)-N-methylamino)-2-chlorobenzyl)-2-methyl-5-(1-pentanesulfonylcarbamoyl)-3H-imidazo[4,5-b]pyridine] gave a melting point of 120 to 121 °C.
